Laboratory results as given in article PMC12114444, “Biochemical Characterization and Polyester-Binding/Degrading Capability of Two Cutinases from Aspergillus fumigatus” (Microorganisms, 2025).

Tested on: AfCutB
Conditions: 30 °C, 5 min; standard assay 0.05 M Tris-HCl pH 8.5 (results text: optimal conditions, optimum pH 9.0)

`CCCC(=O)Oc1ccc([N+](=O)[O-])cc1` [p-nitrophenyl butyrate] was tested, and the Km was 6.29 mM.
